Laboratory results taken from patent US11266655B2, “Methods and compositions for treating urea cycle disorders” (Camp4 Therapeutics Corporation, priority 2019, dated 2022).

Key:
[1] = system: OTC; test: siRNA knockdown of JAK/STAT/IRF genes in hepatocytes, OTC mRNA; format: cell-based, human; conditions: 10 nM siRNA plus 0.03 nM JAK1 siRNA, FIG. 27C
From the text: To confirm that JAK1 inhibition is necessary for OTC and CPS1 gene expression increase, JAK1, JAK2, and JAK3 expression was knocked down using the siRNA methods previously described in Example 1 (JAK1 siRNA Dharmacon #M-003145-02-0005; JAK2 siRNA Dharmacon #M-003146-02-0005; JAK3 siRNA Dharmacon #M-003147-01-0005). The cells were harvest for mRNA collection and quantification as previously described.
In addition, STAT5B is a JAK1 signal transducer and transcription factor activated by JAK1. STAT5B was knocked down in hepatocytes using siRNA (Dharmacon cat #M-010539-02-0005) as previously described in Example 1. The cells were harvest for mRNA collection and quantification as previously described.
To confirm the role of JAK1 and investigate the role of other signaling proteins and transcription factors in OTC and CPS1 expression, a panel of additional genes were knocked down with siRNA alone or in combination with JAK1. In particular, JAK2 was knockdown alone or in combination with JAK1. The combinations are shown in FIG. 26A and FIG. 26B. siRNA used to knock down JAK1 and JAK2 were: JAK1 siRNA Dharmacon #M-003145-02-0005; JAK2 siRNA Dharmacon #M-003146-02-0005. OTC and CPS1 mRNA expression was normalized to B2M. The assay was performed in triplicate in three donor hepatocyte cell lines: 371, 171, and 511A.
Cells were harvested after siRNA treatment for mRNA quantification. JAK1, OTC, and CPS1 mRNA levels were normalized to GUSB.

[2] = system: CPS1; test: RNA-seq of compound-treated primary human hepatocytes, CPS1 expression; format: cell-based; conditions: for Relative CPS1 level vs Untreated (±Standard Deviation): primary human hepatocytes, triplicate (Table 20, FIG. 12)
[3] = system: OTC; test: RNA-seq of compound-treated primary human hepatocytes, OTC expression; format: cell-based; conditions: for Relative OTC level vs Untreated (±Standard Deviation): primary human hepatocytes, triplicate (Table 14)
[4] = system: ASS1; test: RNA-seq of compound-treated primary human hepatocytes, ASS1 expression; format: cell-based
[5] = system: ASL; test: RNA-seq of compound-treated primary human hepatocytes, ASL expression; format: cell-based; conditions: for Relative ASL level vs Untreated (±Standard Deviation): primary human hepatocytes, triplicate (Table 25, FIG. 17)
[6] = system: ARG1; test: RNA-seq of compound-treated primary human hepatocytes, ARG1 expression; format: cell-based; conditions: for Relative ARGI level vs Untreated (±Standard Deviation): primary human hepatocytes
[7] = system: OTC; test: OTC expression modulated by compounds, OTC/GeoMean of housekeeping genes, DMSO = 1 (Table 3A); format: cell-based, human; conditions: 10 uM final concentration
[8] = system: SLC25A15; test: RNA-seq of compound-treated primary human hepatocytes, SLC25A15 expression; format: cell-based
[9] = system: urea cycle genes; test: RNA-seq of primary human hepatocytes, compounds that modulate multiple urea cycle-related genes; format: cell-based
[10] = system: OTC; test: JAK inhibitors at 0.3 and 3 μM in primary human hepatocytes, OTC mRNA fold change; format: cell-based; conditions: fold change vs DMSO
Protocol: (§1) Additional small molecules that inhibit JAK1, JAK2, JAK3, or a combination of the JAK proteins were tested in primary human hepatocytes as described in Example 2. JAK inhibitors were tested in triplicate at 0.3 μM and 3 μM. The results are shown as the fold change (mRNA FC) in the mRNA levels of OTC and CPS1 genes after treatment compared to an untreated control (DMSO) and the standard deviation (SD).

[11] = system: CPS1; test: JAK inhibitors at 0.3 and 3 μM in primary human hepatocytes, CPS1 mRNA fold change; format: cell-based; conditions: fold change vs DMSO
Protocol: as §1

[12] = Example 11, relative mRNA vs DMSO

“STAT5A (DNA ATTTCTNAGAAA; target site or template, no part of the molecule; chemistry not given here)” was tested, and the “OTC expression after knockdown in combination with JAK1” value [1] was “increased”.

`CN(c1ncccc1CNc1nc(Nc2ccc3c(c2)CC(=O)N3)ncc1C(F)(F)F)S(C)(=O)=O` [PF-00562271] was tested, and the “Relative CPS1 level vs Untreated (±Standard Deviation)” value ([2]; 3 uM) was 2.33 ± 0.58, the “Relative CPS1 level vs Untreated (±Standard Deviation)” value ([2]; 10 uM) was 4.70 ± 0.49 and the “increase in CPS1 gene expression (Tables 19, 20, FIG. 11, 12)” value [2, 12] was “greatest increase”. The “Relative OTC level vs Untreated (±Standard Deviation)” value ([3]; 3 uM) was 3.27 ± 0.59, the “Relative OTC level vs Untreated (±Standard Deviation)” value ([3]; 10 uM) was 7.05 ± 1.14 and the “increase in OTC gene expression (Table 14, FIG. 6)” value [3, 12] was “greatest increase”. The “Relative ASS1 level vs Untreated (±Standard Deviation)” value ([4]; 10 uM, primary human hepatocytes, triplicate (Table 15, FIG. 8)) was 2.30 ± 0.41, the “Relative ASL level vs Untreated (±Standard Deviation)” value ([5]; 3 uM) was 2.09 ± 0.67 and the “Relative ASL level vs Untreated (±Standard Deviation)” value ([5]; 10 uM) was 4.92 ± 1.05. For the same compound, the “increase in ASL gene expression (Table 25, FIG. 17)” value [5, 12] was “greatest increase”, the “Relative ARGI level vs Untreated (±Standard Deviation)” value ([6]; 10 μM, triplicate (Table 17, FIG. 9)) was 1.32 ± 0.33 and the “Relative ARGI level vs Untreated (±Standard Deviation)” value ([6]; 10 uM, triplicate (Table 18, FIG. 10)) was 2.53 ± 0.36. The “increase in ARG1 gene expression (Tables 17, 18, FIG. 9, 10)” value [6, 12] was “greatest increase” and the “Max Value (OTC/GeoMean of HKs; DMSO = 1)” value [7] was 3.3.

With `CNC[C@H](O)c1ccc(O)c(O)c1` [Epinephrine] the “CPS1 expression, Fold change (Log 2) vs untreated” value [2] was 4.85 Log 2, the “Fold change (Log 2) vs untreated, ASS1 expression” value [4] was 1.08 Log 2 and the “ASL expression, Fold change (Log 2) vs untreated” value [5] was 0.6 Log 2. For the same compound, the “Fold change (Log 2) vs untreated, ARG1 expression” value [6] was 2.28 Log 2, the “Fold change (Log 2) vs untreated, SLC25A15 expression” value [8] was 1.14 Log 2 and the “Up-regulated Genes” value [9] was “CPS1, ASS1, ASL, ARG1, SLC25A15”. For the same compound, the “number of urea cycle genes whose expression was significantly up-regulated” value [9] was “five”.

With `Cc1cc(Nc2nc(N[C@@H](C)c3ncc(F)cn3)ncc2Cl)[nH]n1` [AZD1480] the “Max Value (OTC/GeoMean of HKs; DMSO = 1)” value [7] was 1.46, the “OTC mRNA FC” value ([10]; 0.3 uM) was 1.63 and the “OTC mRNA FC” value ([10]; 3 uM) was 2.3. The “CPS1 mRNA FC” value ([11]; 0.3 uM) was 1.1 and the “CPS1 mRNA FC” value ([11]; 3 uM) was 1.77.
